Earlier results as cited in patent US8175817B2, “Reciprocal symmetry plots as a new representation of countercurrent chromatograms” (The Board of Trustees of the University of Illinois, priority 2007, dated 2012).

Conditions: octanol/water; extremes of the GUESSmix compounds found in the region of optimal resolution

CC(C)CCC[C@@H](C)[C@H]1CC[C@H]2[C@@H]3CC=C4C[C@@H](O)CC[C@]4(C)[C@H]3CC[C@]12C [cholesterol]
Log Koctanol/water: 9.52
